From paper doi:10.1101/2023.11.24.568596v1 (biorxiv, 2023) come the findings set out here.

Targets include AKT3 (Homo sapiens, UniProt Q9Y243); BRAF (Homo sapiens, UniProt P15056); DAPK3 (Homo sapiens, UniProt O43293); JNK3 (Homo sapiens, UniProt P53779); MRCKa (Homo sapiens, UniProt Q5VT25); PAK4 (Homo sapiens, UniProt O96013).
Holding throughout (settings): binder
The target in the next experiment is T1, DYRK2 (Homo sapiens, UniProt Q92630).
T1 sequence (Q92630 1-601): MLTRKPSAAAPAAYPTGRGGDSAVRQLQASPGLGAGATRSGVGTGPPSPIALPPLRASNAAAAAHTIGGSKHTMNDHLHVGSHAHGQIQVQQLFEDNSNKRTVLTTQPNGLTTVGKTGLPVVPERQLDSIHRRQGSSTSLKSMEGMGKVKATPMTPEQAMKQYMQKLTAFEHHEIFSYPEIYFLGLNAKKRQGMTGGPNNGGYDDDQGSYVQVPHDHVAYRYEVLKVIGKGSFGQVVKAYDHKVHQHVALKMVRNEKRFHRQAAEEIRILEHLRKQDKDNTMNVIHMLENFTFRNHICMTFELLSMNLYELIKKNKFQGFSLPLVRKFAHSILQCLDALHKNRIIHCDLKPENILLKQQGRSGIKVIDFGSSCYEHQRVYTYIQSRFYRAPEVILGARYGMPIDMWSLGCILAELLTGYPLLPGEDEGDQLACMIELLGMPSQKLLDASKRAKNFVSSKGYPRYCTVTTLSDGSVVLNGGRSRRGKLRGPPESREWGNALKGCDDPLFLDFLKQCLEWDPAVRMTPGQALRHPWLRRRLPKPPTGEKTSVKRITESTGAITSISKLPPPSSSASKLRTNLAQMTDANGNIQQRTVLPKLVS

The target of the next experiment is T2, MST1 (Homo sapiens, UniProt Q13043).
T2 sequence (Q13043 1-487): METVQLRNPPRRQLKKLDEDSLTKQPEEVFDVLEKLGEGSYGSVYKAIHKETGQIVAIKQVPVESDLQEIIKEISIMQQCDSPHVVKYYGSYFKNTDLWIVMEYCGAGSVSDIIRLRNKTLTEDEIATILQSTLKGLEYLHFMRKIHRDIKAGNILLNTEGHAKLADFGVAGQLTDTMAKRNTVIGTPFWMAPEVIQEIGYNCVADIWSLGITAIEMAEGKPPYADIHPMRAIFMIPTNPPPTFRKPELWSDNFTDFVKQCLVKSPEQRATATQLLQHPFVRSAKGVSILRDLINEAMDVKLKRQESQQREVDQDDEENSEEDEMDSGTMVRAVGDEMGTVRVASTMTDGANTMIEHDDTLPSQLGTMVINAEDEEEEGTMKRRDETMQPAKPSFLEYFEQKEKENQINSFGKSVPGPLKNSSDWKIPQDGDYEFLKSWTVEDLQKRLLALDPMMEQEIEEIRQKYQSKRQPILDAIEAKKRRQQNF

The next experiment has as its target T3, PLK4 (Homo sapiens, UniProt O00444).
T3 sequence (O00444 1-970): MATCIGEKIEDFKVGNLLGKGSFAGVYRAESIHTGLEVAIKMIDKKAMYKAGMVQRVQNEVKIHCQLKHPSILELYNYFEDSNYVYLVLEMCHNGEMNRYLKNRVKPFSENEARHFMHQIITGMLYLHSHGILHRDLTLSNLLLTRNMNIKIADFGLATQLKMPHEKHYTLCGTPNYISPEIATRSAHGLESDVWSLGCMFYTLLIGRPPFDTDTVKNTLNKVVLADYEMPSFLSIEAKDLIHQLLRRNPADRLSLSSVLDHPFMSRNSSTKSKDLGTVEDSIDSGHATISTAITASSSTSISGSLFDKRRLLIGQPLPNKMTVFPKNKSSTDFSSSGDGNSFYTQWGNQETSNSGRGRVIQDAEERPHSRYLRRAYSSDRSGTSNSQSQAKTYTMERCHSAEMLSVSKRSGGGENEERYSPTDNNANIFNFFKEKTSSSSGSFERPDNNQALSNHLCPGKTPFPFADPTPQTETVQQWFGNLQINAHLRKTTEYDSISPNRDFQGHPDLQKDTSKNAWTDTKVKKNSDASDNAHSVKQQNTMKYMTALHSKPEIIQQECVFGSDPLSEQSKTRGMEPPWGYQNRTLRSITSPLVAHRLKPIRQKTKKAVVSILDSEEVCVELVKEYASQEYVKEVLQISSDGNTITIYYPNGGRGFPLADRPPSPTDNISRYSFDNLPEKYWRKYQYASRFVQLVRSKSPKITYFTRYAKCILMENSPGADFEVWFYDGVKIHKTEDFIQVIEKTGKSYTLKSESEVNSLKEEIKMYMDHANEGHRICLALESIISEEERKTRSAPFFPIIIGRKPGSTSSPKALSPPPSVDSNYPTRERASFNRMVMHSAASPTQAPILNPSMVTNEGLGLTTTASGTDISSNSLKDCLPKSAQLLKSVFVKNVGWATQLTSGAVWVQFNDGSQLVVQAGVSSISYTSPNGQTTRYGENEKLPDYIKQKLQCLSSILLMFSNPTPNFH

Chain of BRAF (P15056 whole entry): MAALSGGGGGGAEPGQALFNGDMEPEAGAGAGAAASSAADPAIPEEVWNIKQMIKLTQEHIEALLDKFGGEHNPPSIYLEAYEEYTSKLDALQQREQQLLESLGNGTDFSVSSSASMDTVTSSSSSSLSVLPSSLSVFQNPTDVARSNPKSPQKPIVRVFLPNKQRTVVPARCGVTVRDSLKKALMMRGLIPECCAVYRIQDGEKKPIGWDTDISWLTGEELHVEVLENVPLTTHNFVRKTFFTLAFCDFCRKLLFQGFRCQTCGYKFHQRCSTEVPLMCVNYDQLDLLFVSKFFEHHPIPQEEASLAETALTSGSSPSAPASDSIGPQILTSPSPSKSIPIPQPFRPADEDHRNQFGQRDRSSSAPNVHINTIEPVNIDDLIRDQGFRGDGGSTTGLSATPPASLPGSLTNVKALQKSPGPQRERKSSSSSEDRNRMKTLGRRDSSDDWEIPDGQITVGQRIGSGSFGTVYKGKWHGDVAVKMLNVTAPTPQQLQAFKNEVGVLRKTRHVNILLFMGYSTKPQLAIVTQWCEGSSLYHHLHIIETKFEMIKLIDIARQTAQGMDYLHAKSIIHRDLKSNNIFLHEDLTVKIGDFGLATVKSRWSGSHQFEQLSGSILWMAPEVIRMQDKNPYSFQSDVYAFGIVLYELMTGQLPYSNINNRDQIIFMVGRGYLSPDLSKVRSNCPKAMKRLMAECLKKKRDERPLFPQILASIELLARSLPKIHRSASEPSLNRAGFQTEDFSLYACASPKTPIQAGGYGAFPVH
Chain of PAK4 (O96013 whole entry): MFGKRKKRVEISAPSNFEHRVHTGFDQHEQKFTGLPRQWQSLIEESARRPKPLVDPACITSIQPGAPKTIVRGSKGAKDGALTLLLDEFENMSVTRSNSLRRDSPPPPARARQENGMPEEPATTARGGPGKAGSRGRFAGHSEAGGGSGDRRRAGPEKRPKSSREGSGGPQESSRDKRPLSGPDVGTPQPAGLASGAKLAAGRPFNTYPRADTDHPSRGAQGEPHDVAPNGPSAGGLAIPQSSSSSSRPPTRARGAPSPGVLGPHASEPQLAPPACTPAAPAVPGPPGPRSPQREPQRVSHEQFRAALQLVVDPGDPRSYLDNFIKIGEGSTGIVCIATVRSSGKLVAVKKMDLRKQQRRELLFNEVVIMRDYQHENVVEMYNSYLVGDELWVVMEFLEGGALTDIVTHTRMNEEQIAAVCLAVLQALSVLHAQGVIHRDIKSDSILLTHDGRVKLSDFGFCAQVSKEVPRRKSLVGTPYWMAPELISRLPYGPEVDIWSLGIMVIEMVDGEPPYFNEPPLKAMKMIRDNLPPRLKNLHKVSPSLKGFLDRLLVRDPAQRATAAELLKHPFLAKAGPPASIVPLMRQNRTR
Chain of DAPK3 (O43293 whole entry): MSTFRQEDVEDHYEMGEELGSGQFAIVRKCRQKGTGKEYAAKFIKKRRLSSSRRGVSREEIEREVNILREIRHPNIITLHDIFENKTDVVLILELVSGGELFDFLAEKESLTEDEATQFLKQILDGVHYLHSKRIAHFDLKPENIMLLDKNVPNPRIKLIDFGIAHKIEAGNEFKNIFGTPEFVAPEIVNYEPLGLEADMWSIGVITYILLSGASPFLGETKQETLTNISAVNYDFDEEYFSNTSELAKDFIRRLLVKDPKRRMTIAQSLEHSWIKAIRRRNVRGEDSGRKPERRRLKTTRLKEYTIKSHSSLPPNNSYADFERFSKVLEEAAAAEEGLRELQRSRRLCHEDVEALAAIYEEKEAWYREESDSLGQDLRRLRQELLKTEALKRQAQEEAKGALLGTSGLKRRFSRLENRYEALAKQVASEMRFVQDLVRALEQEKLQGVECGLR
Chain of MRCKa (Q5VT25 whole entry): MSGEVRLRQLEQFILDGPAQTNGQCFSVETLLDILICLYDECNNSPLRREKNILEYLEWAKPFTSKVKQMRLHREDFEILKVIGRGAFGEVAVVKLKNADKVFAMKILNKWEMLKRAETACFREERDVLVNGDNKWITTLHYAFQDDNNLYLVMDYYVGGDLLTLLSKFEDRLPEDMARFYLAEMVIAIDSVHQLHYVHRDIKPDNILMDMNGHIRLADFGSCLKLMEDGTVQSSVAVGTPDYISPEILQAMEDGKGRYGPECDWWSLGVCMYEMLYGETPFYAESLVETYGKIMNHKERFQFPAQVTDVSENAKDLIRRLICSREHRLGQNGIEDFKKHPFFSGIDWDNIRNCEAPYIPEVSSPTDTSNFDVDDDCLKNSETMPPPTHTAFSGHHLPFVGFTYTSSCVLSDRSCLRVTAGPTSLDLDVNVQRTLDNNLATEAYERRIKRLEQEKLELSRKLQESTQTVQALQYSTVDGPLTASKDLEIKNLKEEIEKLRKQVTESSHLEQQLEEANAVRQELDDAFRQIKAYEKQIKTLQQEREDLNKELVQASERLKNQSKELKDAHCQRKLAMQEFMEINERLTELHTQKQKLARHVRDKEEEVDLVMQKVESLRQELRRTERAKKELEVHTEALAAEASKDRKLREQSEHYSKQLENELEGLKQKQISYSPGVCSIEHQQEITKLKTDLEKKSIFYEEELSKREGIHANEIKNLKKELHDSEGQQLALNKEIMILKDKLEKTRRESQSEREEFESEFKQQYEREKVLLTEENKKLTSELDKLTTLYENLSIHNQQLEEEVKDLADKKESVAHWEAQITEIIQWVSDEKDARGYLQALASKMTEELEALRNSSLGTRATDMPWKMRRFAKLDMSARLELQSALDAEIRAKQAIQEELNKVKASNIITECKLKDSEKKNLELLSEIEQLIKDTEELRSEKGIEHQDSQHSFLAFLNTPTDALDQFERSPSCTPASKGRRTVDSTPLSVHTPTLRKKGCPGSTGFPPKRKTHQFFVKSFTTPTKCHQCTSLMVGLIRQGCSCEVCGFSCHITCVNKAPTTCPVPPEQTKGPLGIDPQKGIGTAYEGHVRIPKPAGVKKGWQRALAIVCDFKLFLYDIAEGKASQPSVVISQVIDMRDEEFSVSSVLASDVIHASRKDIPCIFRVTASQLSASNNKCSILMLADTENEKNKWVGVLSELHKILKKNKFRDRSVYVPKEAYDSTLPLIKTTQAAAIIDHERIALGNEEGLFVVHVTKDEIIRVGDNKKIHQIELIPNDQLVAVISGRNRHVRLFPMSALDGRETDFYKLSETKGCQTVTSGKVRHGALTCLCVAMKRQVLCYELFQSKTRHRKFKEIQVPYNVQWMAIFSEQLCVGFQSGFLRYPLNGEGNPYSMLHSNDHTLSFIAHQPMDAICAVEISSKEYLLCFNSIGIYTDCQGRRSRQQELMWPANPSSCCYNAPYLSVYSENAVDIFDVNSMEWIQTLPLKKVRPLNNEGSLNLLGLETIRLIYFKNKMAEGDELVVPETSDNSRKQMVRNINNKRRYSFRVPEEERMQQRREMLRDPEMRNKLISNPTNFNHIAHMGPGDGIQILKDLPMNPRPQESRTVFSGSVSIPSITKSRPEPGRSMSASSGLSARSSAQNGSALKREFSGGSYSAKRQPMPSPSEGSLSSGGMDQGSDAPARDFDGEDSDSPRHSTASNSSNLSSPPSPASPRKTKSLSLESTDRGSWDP
Chain of JNK3 (P53779 whole entry): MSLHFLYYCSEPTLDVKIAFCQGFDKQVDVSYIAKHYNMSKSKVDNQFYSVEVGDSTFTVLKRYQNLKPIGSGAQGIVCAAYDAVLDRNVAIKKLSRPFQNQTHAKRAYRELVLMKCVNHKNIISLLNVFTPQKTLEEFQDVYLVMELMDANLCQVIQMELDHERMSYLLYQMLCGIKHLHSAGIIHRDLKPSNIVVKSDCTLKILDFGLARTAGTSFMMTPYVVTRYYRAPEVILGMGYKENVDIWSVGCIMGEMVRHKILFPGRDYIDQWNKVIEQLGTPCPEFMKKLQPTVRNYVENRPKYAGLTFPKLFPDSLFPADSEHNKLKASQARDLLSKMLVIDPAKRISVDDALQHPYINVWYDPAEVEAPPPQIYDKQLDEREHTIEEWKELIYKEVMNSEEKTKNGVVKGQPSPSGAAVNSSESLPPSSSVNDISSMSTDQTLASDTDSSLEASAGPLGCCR
Chain of AKT3 (Q9Y243 whole entry): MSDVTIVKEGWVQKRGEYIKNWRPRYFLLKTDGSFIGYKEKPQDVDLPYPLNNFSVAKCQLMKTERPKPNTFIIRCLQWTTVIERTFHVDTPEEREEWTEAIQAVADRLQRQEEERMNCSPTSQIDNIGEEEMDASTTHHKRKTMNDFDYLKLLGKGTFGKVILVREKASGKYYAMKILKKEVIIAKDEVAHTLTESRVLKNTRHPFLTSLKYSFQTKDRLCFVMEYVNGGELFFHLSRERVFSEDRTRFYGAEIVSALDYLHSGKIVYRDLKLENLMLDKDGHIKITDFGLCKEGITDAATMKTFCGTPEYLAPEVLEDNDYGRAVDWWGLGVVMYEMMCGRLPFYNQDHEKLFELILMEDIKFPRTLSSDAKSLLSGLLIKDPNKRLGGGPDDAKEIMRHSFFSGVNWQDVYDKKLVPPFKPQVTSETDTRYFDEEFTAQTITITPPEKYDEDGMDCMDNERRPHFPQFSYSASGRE

For the molecule `CNc1ncc2cc(-c3ccc(-c4cccc(C)n4)cc3Cl)c(=O)n(CCCCN)c2n1` [compound 20, MRLW5], the “ΔTm MRLW5 (20)” value at AKT3 is 2.3 °C; at BRAF, 4.1 °C; at DAPK3 it was 1.4 °C; at DYRK2 it was -0.1 °C; at JNK3, 1.3 °C; on MRCKa, 1.0 °C. In addition, the “ΔTm MRLW5 (20)” value at MST1 is 5.6 °C; on PAK4, 4.8 °C; on PLK4, 5.2 °C.
As to `CNc1ncc2cc(-c3ccc(-c4cccc(C)n4)cc3Cl)c(=O)n(CCC3CCNCC3)c2n1` [compound 22, 6-(2-Chloro-4-(6-methylpyridin-2-yl)phenyl)-2-(methylamino)-8-(2-(piperidin-4-yl)ethyl)pyrido[2,3-d]pyrimidin-7(8H)-one], the “ΔTm 22” value at AKT3 was 4.6 °C; on BRAF it was 6.3 °C; at DAPK3, 2.4 °C; on DYRK2, -0.4 °C; at JNK3 it was 3.3 °C; on MRCKa, 1.8 °C. Besides, the “ΔTm 22” value on MST1 turned out to be 6.0 °C; at PAK4, 4.7 °C; at PLK4, 7.3 °C.
For the molecule `CNc1ncc2cc(-c3ccc(-c4cccc(C)n4)cc3Cl)c(=O)n(C[C@H]3CC[C@H](N)CC3)c2n1` [compound 23, 23], the “ΔTm 23” value at AKT3 is 3.7 °C; on BRAF, 6.2 °C; on DAPK3, 2.8 °C; at DYRK2 it was -0.2 °C; at JNK3, 1.3 °C; at MRCKa it was 2.9 °C. For the same molecule, the results for the “ΔTm 23” value at MST1, at PAK4 and on PLK4 were 7.9 °C, 4.5 °C and 7.1 °C, respectively.
As to `Cc1cccc(-c2ccc(-c3cc4cnc(NC(CO)CO)nc4n(CCCCN)c3=O)c(Cl)c2)n1` [compound 24, 8-(4-Aminobutyl)-6-(2-chloro-4-(6-methylpyridin-2-yl)phenyl)-2-((1,3-dihydroxypropan-2-yl)amino)pyrido[2,3-d]pyrimidin-7(8H)-one], the “ΔTm MR24 (24)” value was 1.0 °C at AKT3; 1.2 °C on BRAF; 0.2 °C at DAPK3; -0.3 °C at DYRK2; 3.7 °C on JNK3; -0.7 °C at MRCKa. For the same molecule, the figures for the “ΔTm MR24 (24)” value at MST1, at PAK4 and on PLK4 were -0.6 °C, 2.2 °C and 1.3 °C, respectively.
Consider `Cc1cccc(-c2ccc(-c3cc4cnc(NCCCc5ccc(N)cc5)nc4n(CCCCN)c3=O)c(Cl)c2)n1` [compound 25, 8-(4-Aminobutyl)-2-((3-(4-aminophenyl)propyl)amino)-6-(2-chloro-4-(6-methylpyridin-2-yl)phenyl)pyrido[2,3-d]pyrimidin-7(8H)-one], for which the “ΔTm 25” value is 2.0 °C at AKT3; 5.2 °C on BRAF; 0.8 °C at DAPK3; -0.6 °C at DYRK2; 3.2 °C at JNK3; 0.0 °C on MRCKa. Also, the “ΔTm 25” value at MST1 was -1.4 °C; at PAK4, 5.5 °C; at PLK4, 6.7 °C.
Turning to `Cc1cccc(-c2ccc(-c3cc4cnc(NCCCN5CCOCC5)nc4n(CCCCN)c3=O)c(Cl)c2)n1` [compound 26, MR26], the “ΔTm MR26 (26)” value is 0.8 °C at AKT3; 1.7 °C at BRAF; 0.0 °C at DAPK3; -0.2 °C on DYRK2; 1.1 °C on JNK3; -0.2 °C at MRCKa. The “ΔTm MR26 (26)” value on MST1 was -0.5 °C; on PAK4, 2.4 °C; on PLK4, 5.1 °C.
